Results reported in patent US6603046B1, “Bis-aromatic a,β-unsaturated ketones” (Lica Pharmaceuticals A/S, priority 1992, dated 2003).
Converted amounts (≈) assume the structure as drawn. “And” between values parts separate entries of the source, which are not always exact repeats. Identical values can stand only once. Like-named read-outs stand apart in the source and are kept apart here. Marks after values point to notes of the source that are not given here.

Experiments:
Corynebacterium species = experiment: microbe, parasite or virus in culture; format: cell-based
L. gormanii = experiment: microbe, parasite or virus in culture; format: cell-based; settings: Fluoribacter gormanii
[1] = tested on: L. major amastigotes in U937 cells; experiment: L. major amastigotes in U937 cells, microscopic counting (Example 7); format: cell-based, Leishmania major
L. micdadei = experiment: microbe, parasite or virus in culture; format: cell-based, Legionella micdadei
M. intracellular = experiment: Radiometric MIC (Example 19); format: cell-based; settings: n=9
Eimeria tenella = experiment: Anticoccidial activity in chickens infected with Eimeria tenella (Example 28); format: in vivo
Sarcina lutea = experiment: MIC, macrodilution (Example 17); format: cell-based; settings: Micrococcus luteus; 1 strain
BCG = format: cell-based; settings: n = 3
human monocytes = experiment: Zymosan-enhanced chemiluminescence, monocytes; format: cell-based; settings: Monocyte, read-out: percentage inhibition of chemiluminescence response to opsonized zymosan (mean ± SEM)
Method: Chemiluminescence. Monocytes were prepared from heparinized blood by metrizoate sodium-Ficoll (the same as lymphocyte proliferation). Polymorphonuclear leucocytes (PMN) were prepared from heparinized blood by dextran sedimentation and metrizoate sodium-Ficoll separation. Remaining erythrocytes were removed by hypotonic lysis. A zymosan-enhanced chemiluminescence assay was used. The assay was performed in a total volume of 5.5 ml at ambient temperature in glass scintillation vials. A Beckman L 8000 scintillation counter (placed under air-conditioned, thermostat controlled, 21±1° C. conditions) was used in the out-of-coincidence mode A 1.1 ml portion of PMN or monocyte suspension (1×10^6 cells per ml) was pre-incubated with 1.1 ml of various concentrations of licochalcone A for 30 min at 37° C. in a rotor at 20 rpm Luminol (5-amino-2,3-dihydro-1,4-phatalazinedione) obtained from Sigma Chemical Co., St Louis, Mo., U.S.A., was maintained as a stock solution of 10 mg/ml in NaOH (0.1 N) and diluted in Krebs-Ringer solution immediately before use. Each vial contained 5×10^5 pre-incubated PMN or monocyte, 4 mg of opsonized zymosan (Sigma), 50 μl of luminol solution, and 4.45 ml of Krebs-Ringer solution containing 5 mM glucose. The final concentration of luminol in the assay mixture was 5×10^−8m.

[2] = tested on: P. yoelii (strain not characterized); experiment: P. yoelii (strain not characterized) infection in mice, parasitemia, drug i.p. (Example 16); format: in vivo, BALB/c mice; settings: 5 mg per kg twice daily for 8 days
[3] = 3 days after infection, 0.5 μg/ml
[4] = 3 days after infection, 1 μg/ml
[5] = 6 days after infection, 0.5 μg/ml
[6] = 6 days after infection, 1 μg/ml
[7] = amount of feed consumed per kg chicken weight gain, doses as Table 28.1
[8] = in feed: salinomycin 70 ppm, 2,5 m4′ac and 2,4 mc 30 mg/kg/day, licochalcone A 10 mg/kg/day

C=CC(C)(C)c1cc(/C=C/C(=O)c2ccc(O)cc2)c(OC)cc1O [Licochalcone A, licochalcone A]
MIC (Corynebacterium species): 0.3 to 4 µg/mL (≈ 0.887 to 11.8 µM) | MIC (Corynebacterium species; read-out: MIC of one very sensitive corynebacterium species): 0.3 µg/mL | MIC (L. gormanii): 500 µg/mL (≈ 1480 µM) | % of amast. [1, 3]: 96.6% | % of infec. cells [1, 3]: 28.0% | amast. per cell [1, 3]: 2.3 | proma per cell [1, 3]: 0.1 | total amast. [1, 3]: 65.0 ×10^6 | total proma. [1, 3]: 2.3 ×10^6 | % of amast. [1, 4]: 91.2% | % of infec. cells [1, 4]: 19.0% | amast. per cell [1, 4]: 2.0 | proma per cell [1, 4]: 0.2 | total amast. [1, 4]: 38.3 ×10^6 | total proma. [1, 4]: 3.7 ×10^6 | % of infec. cells ([1]; 3 days after infection, 5 μg/ml): 0% | % of infec. cells ([1]; 3 days after infection, 10 μg/ml): 0% | % of amast. [1, 5]: 100% | % of infec. cells [1, 5]: 13.7% | amast. per cell [1, 5]: 3.1 | proma per cell [1, 5]: 0 | total amast. [1, 5]: 42.0 ×10^6 | total proma. [1, 5]: 0 ×10^6 | % of amast. [1, 6]: 100% | % of infec. cells [1, 6]: 3.0% | amast. per cell [1, 6]: 1.8 | proma per cell [1, 6]: 0 | total amast. [1, 6]: 5.3 ×10^6 | total proma. [1, 6]: 0 ×10^6 | % of infec. cells ([1]; 6 days after infection, 5 μg/ml): 0% | % of infec. cells ([1]; 6 days after infection, 10 μg/ml): 0% | MIC (L. micdadei; Fluoribacter gormanii, read-out: MIC-values, Legionella gormanii and the 4 L. micdadei isolates): 15 to 500 µg/mL (≈ 44.3 to 1480 µM) | MIC (L. micdadei; Legionella micdadei, L. micdadei (Bari)): 60 µg/mL (≈ 177 µM) | MIC (L. micdadei; Legionella micdadei, L. micdadei (Detroit)): 15 µg/mL (≈ 44.3 µM) | MIC (L. micdadei; Legionella micdadei, L. micdadei (F 1433)): 60 µg/mL (≈ 177 µM) | MIC (L. micdadei; Legionella micdadei, L. micdadei, 1 strain): 500 µg/mL (≈ 1480 µM) | meanMIC (M. intracellular): 50.0 µg/mL | rangeMIC (M. intracellular): 20 to 80 µg/mL | percentages of chickens showing pathological signs versus infected control group (Eimeria tenella; 10 mg/kg/day in feed): much lower | feed consumption after 7 days of treatment (Eimeria tenella; [7]): 1.26 | feed consumption after 14 days of treatment (Eimeria tenella; [7]): 1.31 | Weight gain in 7 days after initiation of treatment (Eimeria tenella; [8]): 414 grams per chicken | Weight gain in 14 days after initiation of treatment (Eimeria tenella; [8]): 864^b grams per chicken | Difference in weight gain to group 5 (control infected) after treatment for 14 days (Eimeria tenella; normal variation ±2%): ^bDifference between groups 4 (licochalcone A) and 5 (control infected) after treatment for 14 days is 7.6%. | Mortality (Eimeria tenella; number of chickens, groups of 35, licochalcone A 20): 0 | MIC (Sarcina lutea): 4 µg/mL (≈ 11.8 µM) | meanMIC (BCG): meanMIC = 8.6 μg/ml | meanMIC (second line) (BCG): meanMIC = 40 μg/ml (n = 3) | rangeMIC (BCG): rangeMIC = 5-10 /ml (n = 3) | inhibition at 1 µg/mL (human monocytes; 1 μg/ml): 8.2 ± 3.3% | inhibition at 2 µg/mL (human monocytes; 2 μg/ml): 7.8 ± 6.5% | inhibition at 5 µg/mL (human monocytes; 5 μg/ml): 24.8 ± 5.3% | inhibition at 10 µg/mL (human monocytes; 10 μg/ml): 37.9 ± 3.1% | inhibition at 20 µg/mL (human monocytes; 20 μg/ml): 56.5 ± 3.8% | Parasitemia, mean of 3 mice ([2]; D + 1): 0.03% | Parasitemia, single mice ([2]; D + 1): 0.05% and 0.03% and 0.02% | Parasitemia, mean of 3 mice ([2]; D + 2): 0.2% | Parasitemia, single mice ([2]; D + 2): 0.5% and 0.05% and 0.01% | Parasitemia, mean of 3 mice ([2]; D + 3): 1.0% | Parasitemia, single mice ([2]; D + 3): 2.0% and 0.5% | Parasitemia, mean of 3 mice ([2]; D + 4): 2.5% | Parasitemia, single mice ([2]; D + 4): 4.0% and 1.5% and 2.0% | Parasitemia, mean of 3 mice ([2]; D + 5): 2.5% | Parasitemia, single mice ([2]; D + 5): 4.0% and 1.5% and 2.0% | Parasitemia, mean of 3 mice ([2]; D + 6): 2.3% | Parasitemia, single mice ([2]; D + 6): 4.5% and 2.0% and 1.0% | Parasitemia, mean of 3 mice ([2]; D + 7): 2.2% | Parasitemia, single mice ([2]; D + 7): 4.0% and 1.5% and 1.0% | Parasitemia, mean of 3 mice ([2]; D + 8): 2.3% | Parasitemia, single mice ([2]; D + 8): 4.0% and 1.5% | Parasitemia, mean of 3 mice ([2]; D + 9): 2.2% | Parasitemia, single mice ([2]; D + 9): 4.0% and 1.0% and 1.5% | Parasitemia, mean of 3 mice ([2]; D + 11): 1.7% | Parasitemia, single mice ([2]; D + 11): 2.0% and 1.0% | Parasitemia, mean of 3 mice ([2]; D + 12): 1.7% | Parasitemia, single mice ([2]; D + 12): 2.0% and 1.0% | Parasitemia, mean of 3 mice ([2]; D + 14): 0.7% | Parasitemia, single mice ([2]; D + 14): 1.0% and 0.0% | Parasitemia, mean of 3 mice ([2]; D + 16): 0.03% | Parasitemia, single mice ([2]; D + 16): 0.0% and 0.1% | Parasitemia, mean of 3 mice ([2]; D + 18): 0.0% | Parasitemia, single mice ([2]; D + 18): 0.0% | Parasitemia, mean of 3 mice ([2]; D + 20): 0.0% | Parasitemia, single mice ([2]; D + 20): 0.0% | Parasitemia, mean of 3 mice ([2]; D + 21): 0.0% | Parasitemia, single mice ([2]; D + 21): 0.0%
